Measurements as given in PubChem BioAssay AID2060626 (Molecular Pharmacology Branch, DTP, NCI, 2025).

Test system: 168753-222-R-J1-PDC complex spheroid viability
Assay: Anticancer human tumor 168753-222-R-J1-PDC patient-derived bladder carcinoma cell line growth inhibition [CLK]
Conditions: for IC50: curve of first compound; for viability, T/C: stronger effect = lower value
Outline: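 Multi-cell-type spheroids combined patient-derived tumor cells with HUVEC endothelial cells and human mesenchymal stem cells. Paired agents were dosed in half-log steps down from about clinical Cmax, or from 10 microM where Cmax was unknown.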

[1] = second compound 0.0316 µM, first compound 0.0316 µM
[2] = second compound 0.0316 µM, first compound 0.1 µM
[3] = second compound 0.0316 µM, first compound 0.316 µM
[4] = second compound 0.0316 µM, first compound 1 µM
[5] = second compound 0.0316 µM, first compound 3.16 µM
[6] = second compound 0.0316 µM, first compound 10 µM
[7] = second compound 0.1 µM, first compound 0.0316 µM
[8] = second compound 0.1 µM, first compound 0.1 µM
[9] = second compound 0.1 µM, first compound 0.316 µM
[10] = second compound 0.1 µM, first compound 1 µM
[11] = second compound 0.1 µM, first compound 3.16 µM
[12] = second compound 0.1 µM, first compound 10 µM
[13] = second compound 0.316 µM, first compound 0.0316 µM
[14] = second compound 0.316 µM, first compound 0.1 µM
[15] = second compound 0.316 µM, first compound 0.316 µM
[16] = second compound 0.316 µM, first compound 1 µM
[17] = second compound 0.316 µM, first compound 3.16 µM
[18] = second compound 0.316 µM, first compound 10 µM
[19] = second compound 1 µM, first compound 0.0316 µM
[20] = second compound 1 µM, first compound 0.1 µM
[21] = second compound 1 µM, first compound 0.316 µM
[22] = second compound 1 µM, first compound 1 µM
[23] = second compound 1 µM, first compound 3.16 µM
[24] = second compound 1 µM, first compound 10 µM
[25] = second compound 3.16 µM, first compound 0.0316 µM
[26] = second compound 3.16 µM, first compound 0.1 µM
[27] = second compound 3.16 µM, first compound 0.316 µM
[28] = second compound 3.16 µM, first compound 1 µM
[29] = second compound 3.16 µM, first compound 3.16 µM
[30] = second compound 3.16 µM, first compound 10 µM
[31] = second compound 10 µM, first compound 0.0316 µM
[32] = second compound 10 µM, first compound 0.1 µM
[33] = second compound 10 µM, first compound 0.316 µM
[34] = second compound 10 µM, first compound 1 µM
[35] = second compound 10 µM, first compound 3.16 µM
[36] = second compound 10 µM, first compound 10 µM
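Also: viability measured after seven days of drug exposure.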
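For viability, T/C in this document: luminescence signal used as surrogate for viable cell amount; 100% = DMSO vehicle control wells.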

SMILES: CC(C)CC(NC(=O)C(Cc1ccccc1)NC(=O)c1cnccn1)B(O)O (stereo unspecified) + CNC(=O)c1ccc(Nc2nc(OC3CCCC3)c3c(-c4ccc5nc(C)oc5c4)c[nH]c3n2)c(OC)c1
- IC50 (second compound 0.0316 µM): 2.09 nM
- IC50 (second compound 0.1 µM): 2.31 nM
- IC50 (second compound 0.316 µM): 1.8 nM
- IC50 (second compound 1 µM): < 0.949 nM
- IC50 (second compound 3.16 µM): < 0.949 nM
- IC50 (second compound 10 µM): < 0.949 nM
- viability, T/C (second compound 0.0316 µM, first compound 0.000949 µM): 98.6%
- viability, T/C (second compound 0.0316 µM, first compound 0.003 µM): 27.7%
- viability, T/C (second compound 0.0316 µM, first compound 0.00949 µM): 3.13%
- viability, T/C (second compound 0.0316 µM, first compound 0.03 µM): 0.6%
- viability, T/C (second compound 0.0316 µM, first compound 0.0949 µM): 1.66%
- viability, T/C (second compound 0.0316 µM, first compound 0.3 µM): 0.44%
- viability, T/C (second compound 0.1 µM, first compound 0.000949 µM): 89.3%
- viability, T/C (second compound 0.1 µM, first compound 0.003 µM): 38.4%
- viability, T/C (second compound 0.1 µM, first compound 0.00949 µM): 1.22%
- viability, T/C (second compound 0.1 µM, first compound 0.03 µM): 0.27%
- viability, T/C (second compound 0.1 µM, first compound 0.0949 µM): 0.53%
- viability, T/C (second compound 0.1 µM, first compound 0.3 µM): 2.04%
- viability, T/C (second compound 0.316 µM, first compound 0.000949 µM): 76.4%
- viability, T/C (second compound 0.316 µM, first compound 0.003 µM): 29%
- viability, T/C (second compound 0.316 µM, first compound 0.00949 µM): 0.8%
- viability, T/C (second compound 0.316 µM, first compound 0.03 µM): 0.28%
- viability, T/C (second compound 0.316 µM, first compound 0.0949 µM): 1.74%
- viability, T/C (second compound 0.316 µM, first compound 0.3 µM): 0.24%
- viability, T/C (second compound 1 µM, first compound 0.000949 µM): 38.4%
- viability, T/C (second compound 1 µM, first compound 0.003 µM): 26.5%
- viability, T/C (second compound 1 µM, first compound 0.00949 µM): 2.8%
- viability, T/C (second compound 1 µM, first compound 0.03 µM): 0.43%
- viability, T/C (second compound 1 µM, first compound 0.0949 µM): 2.22%
- viability, T/C (second compound 1 µM, first compound 0.3 µM): 1.45%
- viability, T/C (second compound 3.16 µM, first compound 0.000949 µM): 21.6%
- viability, T/C (second compound 3.16 µM, first compound 0.003 µM): 20.2%
- viability, T/C (second compound 3.16 µM, first compound 0.00949 µM): 0.44%
- viability, T/C (second compound 3.16 µM, first compound 0.03 µM): 0.17%
- viability, T/C (second compound 3.16 µM, first compound 0.0949 µM): 0.2%
- viability, T/C (second compound 3.16 µM, first compound 0.3 µM): 0.35%
- viability, T/C (second compound 10 µM, first compound 0.000949 µM): 21%
- viability, T/C (second compound 10 µM, first compound 0.003 µM): 18.4%
- viability, T/C (second compound 10 µM, first compound 0.00949 µM): 0.38%
- viability, T/C (second compound 10 µM, first compound 0.03 µM): 1.09%
- viability, T/C (second compound 10 µM, first compound 0.0949 µM): 1.85%
- viability, T/C (second compound 10 µM, first compound 0.3 µM): 0.25%

SMILES: CC1COCCN1c1cc(C2(S(C)(=N)=O)CC2)nc(-c2ccnc3[nH]ccc23)n1 (stereo unspecified) + CNC(=O)c1ccc(Nc2nc(OC3CCCC3)c3c(-c4ccc5nc(C)oc5c4)c[nH]c3n2)c(OC)c1
- IC50 (second compound 0.0316 µM): > 10000 nM
- IC50 (second compound 0.1 µM): 8260 nM
- IC50 (second compound 0.316 µM): 2960 nM
- IC50 (second compound 1 µM): < 31.6 nM
- IC50 (second compound 3.16 µM): < 31.6 nM
- IC50 (second compound 10 µM): < 31.6 nM
- viability, T/C [1]: 111%
- viability, T/C [2]: 110%
- viability, T/C [3]: 102%
- viability, T/C [4]: 103%
- viability, T/C [5]: 90.8%
- viability, T/C [6]: 52.4%
- viability, T/C [7]: 101%
- viability, T/C [8]: 102%
- viability, T/C [9]: 104%
- viability, T/C [10]: 108%
- viability, T/C [11]: 73.8%
- viability, T/C [12]: 45.3%
- viability, T/C [13]: 79.8%
- viability, T/C [14]: 72.2%
- viability, T/C [15]: 74.5%
- viability, T/C [16]: 58.2%
- viability, T/C [17]: 51.3%
- viability, T/C [18]: 30.9%
- viability, T/C [19]: 47.8%
- viability, T/C [20]: 44.8%
- viability, T/C [21]: 38.5%
- viability, T/C [22]: 37.3%
- viability, T/C [23]: 24.8%
- viability, T/C [24]: 18.1%
- viability, T/C [25]: 31.5%
- viability, T/C [26]: 20.9%
- viability, T/C [27]: 19.4%
- viability, T/C [28]: 18.8%
- viability, T/C [29]: 17.2%
- viability, T/C [30]: 14.2%
- viability, T/C [31]: 19.6%
- viability, T/C [32]: 23%
- viability, T/C [33]: 20.6%
- viability, T/C [34]: 16.1%
- viability, T/C [35]: 15.3%
- viability, T/C [36]: 9.89%

SMILES: O=C(c1cc(Cc2n[nH]c(=O)c3ccccc23)ccc1F)N1CCN(C(=O)C2CC2)CC1 + CNC(=O)c1ccc(Nc2nc(OC3CCCC3)c3c(-c4ccc5nc(C)oc5c4)c[nH]c3n2)c(OC)c1
- IC50 (second compound 0.0316 µM): > 10000 nM
- IC50 (second compound 0.1 µM): > 10000 nM
- IC50 (second compound 0.316 µM): > 10000 nM
- IC50 (second compound 1 µM): < 31.6 nM
- IC50 (second compound 3.16 µM): < 31.6 nM
- IC50 (second compound 10 µM): < 31.6 nM
- viability, T/C [1]: 105%
- viability, T/C [2]: 113%
- viability, T/C [3]: 103%
- viability, T/C [4]: 118%
- viability, T/C [5]: 114%
- viability, T/C [6]: 95.5%
- viability, T/C [7]: 92.3%
- viability, T/C [8]: 86.1%
- viability, T/C [9]: 92.8%
- viability, T/C [10]: 95%
- viability, T/C [11]: 99.2%
- viability, T/C [12]: 93.7%
- viability, T/C [13]: 76.8%
- viability, T/C [14]: 74.2%
- viability, T/C [15]: 68.2%
- viability, T/C [16]: 63.6%
- viability, T/C [17]: 84.8%
- viability, T/C [18]: 70.4%
- viability, T/C [19]: 39.7%
- viability, T/C [20]: 41%
- viability, T/C [21]: 37.3%
- viability, T/C [22]: 39.7%
- viability, T/C [23]: 44.4%
- viability, T/C [24]: 38.4%
- viability, T/C [25]: 24.1%
- viability, T/C [26]: 26.2%
- viability, T/C [27]: 22.7%
- viability, T/C [28]: 17.8%
- viability, T/C [29]: 22.3%
- viability, T/C [30]: 25.5%
- viability, T/C [31]: 17.8%
- viability, T/C [32]: 18.5%
- viability, T/C [33]: 18.7%
- viability, T/C [34]: 18.1%
- viability, T/C [35]: 18.1%
- viability, T/C [36]: 21.3%
